Patent US20150025019A1, “Method for Dosage Adjustment of Drugs that Prevent Elastic Fiber Breakdown” (priority 2013, published 2015)
“Also recorded” adds a separate entry of the source.

How the values were obtained:
[1] = test system: emphysema induced by elastase enzymes; settings: animals; aerosol; cited from earlier work
[2] = test system: lung inflammation in a cystic fibrosis model; settings: cystic fibrosis model in mice; cited from earlier work
elastin degradation = assay: Desmosine and isodesmosine concentrations in sputum, plasma and urine of COPD patients in the clinical trial; assay type: in vivo, human; settings: 2 weeks of hyaluronan aerosol; for Levels of desmosine and isodesmosine in sputum: all 6 patients who provided sputum samples
Experimental: (§1) With this background, efforts continue to develop hyaluronan aerosol as a potential therapy for chronic obstructive pulmonary disease (COPD) related to alpha-1 antitrypsin deficiency (AATD) and not related to AATD. As part of that development this clinical safety trial was conducted in 11 COPD patients, 8 of whom received hyaluronan and 3 received placebo. The study protocol was conducted under IND number 70299. The primary aim of the study was to establish safety and to evaluate biomarker activity with respect to body and lung elastin degradation.
(§2) Each patient self-administered 0.01% hyaluronan from a vialed volume of 3 ml by aerosol from a compressor-delivered Pari nebulizer, morning and night for 14 days. The primary endpoints to assess safety were adverse events, oxygen saturation, spirometry, lung volumes, physical examination, vital signs, electrocardiogram and laboratory evaluations (CBC, serum chemistries and urinalysis). Additionally, desmosine and isodesmosine concentrations in sputum, plasma and urine were measured to assess a possible effect on elastin degradation (44, 45)
Sputum samples collected from patients with emphysema and other inflammatory lung diseases are chemically degraded to separate the component amino acids of elastic fibers and other proteins. This procedure may involve hydrolyzing the sample with an acid such as HCl or a base such as NaOH, according to procedures well known to the art. The resulting hydrolysate is then measured for total elastin-specific amino acids, desmosine and isodesmosine, using a variety of procedures, including liquid chromatography or immunoassay, ultraviolet spectroscopy, fluorescence spectroscopy, mass spectrometry, or other spectroscopic techniques well-known to the art.
Desmosine and isodesmosine content of the sputum sample is then normalized to one or more parameters, such as total protein, albumin, or free amino acids, according to procedures well known to the art. The final value is expressed as total desmosine/isodesmosine per unit volume, protein, albumin, amino acids or other relevant parameter. Results obtained from the same patient over time may be used to determine variations in the amount of lung elastic fiber injury.

[3] = test system: pulmonary emphysema induced by tobacco smoke; settings: mice exposed to tobacco smoke over a 6-month period; cited from earlier work
elastic fiber breakdown = assay: Illustrative examples of titrating aerosolized hyaluronan by sputum desmosine and isodesmosine level; assay type: in vivo, human
Experimental: Examples of the use of the invention to titrate treatment with aerosolized hyaluronan are given below:
1) A patient with pulmonary emphysema is found to have an abnormally high level of sputum desmosine and isodesmosine (20 nanograms/gram protein compared to a normal level of less than 5 nanograms/g protein), and begins treatment with a dose of 0.1% hyaluronan that is inhaled for 20 minutes once daily in the morning. After 1 month, the sputum desmosine and isodesmosine level is measured and found to be 10 nanograms/g of protein in the sputum, which is more than twice the upper limit of normal. The patient is then switched to a twice daily inhalation for 20 minutes in the morning and evening. Two weeks later, the patient's sputum desmosine and isodesmosine level has fallen to 1 nanogram/g of protein, which is within the normal range. Their treatment is therefore left unchanged and sputum desmosine and isodesmsoine levels are measured at monthly intervals to ensure that the drug remains effective in preventing elastic fiber breakdown.
2) A patient with a history of smoking is tested for sputum desmosine and isodesmosine levels. They are found to have a mildly elevated level of 6 nanograms/g protein, and is placed on low dose hyaluronan, involving a single daily 20 minute inhalation of 0.05% hyaluronan. Two weeks later, their sputum desmosine and isodesmosine level is 1 nanogram/g protein, which is within the normal range. Based on this finding, their treatment is lowered to a 20 minute inhalation of hyaluronan every other day. Two weeks later, their sputum desmosine and isodesmsoine level has risen to 6 nanograms/g protein, which is above the upper limit of normal. Their treatment regimen is therefore returned to a 20 minute inhalation every day. Two weeks later, their sputum desmosine and isodesmosine level has fallen to 1 nanogram/g protein. Their treatment needs no further modification, and sputum desmosine and isodesmosine levels are measured at monthly intervals to ensure that the drug remains effective in preventing elastic fiber breakdown.

elastin fibers = settings: in vitro; cited from earlier work
[4] = therapy in cystic fibrosis; cited from earlier work
[5] = Clinical safety trial of hyaluronan aerosol in COPD patients: safety endpoints; assay type: in vivo, human
Experimental: as §1
Eleven patients were recruited from 2 Centers: 9 patients from Research Associates in Tucson Ariz. and 2 patients from St. Luke's-Roosevelt Hospital Pulmonary Disease Center in New York. All patients fulfilled the diagnostic criteria of COPD with GOLD grades 2 and 3 with moderate airway obstruction (FEV1 above 40% of predicted) and at least a ten pack-year history of cigarette smoking. No patients were actively smoking at the time of recruitment and smoking cessation had occurred over one year prior to the study in all patients. Six patients were male […]. All were Caucasian. Three patients received placebo. Eight patients received hyaluronan CTX-100.
as §2

[6] = listed as aerosolized hyaluronan

In the case of hyaluronan, the “Severity of emphysema induced by elastase enzymes” value [1] is listed as “decrease the severity of emphysema induced by elastase enzymes”, the Lung inflammation [2] is listed as “reduce lung inflammation in a cystic fibrosis model in mice” and the “Blood levels of desmosine and isodesmosine” value (elastin degradation) is listed as “significant reduction”. For the same substance, the “Urine levels of desmosine and isodesmosine” value (elastin degradation) was “significant reduction”, the “Levels of desmosine and isodesmosine in sputum” value (elastin degradation) was “statistically significant reduction; also recorded: Reductions” and the “Levels of desmosine and isodesmosine in sputum” value (elastin degradation; [6]) was “statistically significant decline”. For the same substance, the “Blood levels of desmosine and isodesmosine” value (elastin degradation; [6]) was “statistically significant decline”, the “Urine levels of desmosine and isodesmosine” value (elastin degradation; [6]) was “statistically significant decline” and the “Pulmonary emphysema induced by tobacco smoke” value [3] was “decrease the pulmonary emphysema induced in mice exposed to tobacco smoke”. For the same substance, the “Sputum desmosine and isodesmosine level” value (elastic fiber breakdown; patient with history of smoking, start 6, single daily 20 minute inhalation of 0.05% hyaluronan, two weeks later) was 1 nanogram/g protein, the “Sputum desmosine and isodesmosine level” value (elastic fiber breakdown; patient with pulmonary emphysema, start 20, 0.1% hyaluronan inhaled 20 minutes once daily, after 1 month) was 10 nanograms/g of protein and the “Sputum desmosine and isodesmosine level” value (elastic fiber breakdown; same patient, 0.1% hyaluronan, twice daily 20 minute inhalation, two weeks later) was 1 nanogram/g of protein. The “Sputum desmosine and isodesmosine level” value (elastic fiber breakdown; same patient, 20 minute inhalation every other day, two weeks later) was 6 nanograms/g protein, the “Sputum desmosine and isodesmosine level” value (elastic fiber breakdown; same patient, returned to 20 minute inhalation every day, two weeks later) was 1 nanogram/g protein and the “Elastase degradation of elastin fibers” value (elastin fibers) was “block elastase degradation of elastin fibers in vitro”. The “Tolerability of hypertonic saline” value [4] was “improve tolerability of hypertonic saline”, the Adverse events ([5]; 0.01% hyaluronan, 3 ml by aerosol, morning and night for 14 days) was “mild to moderate” and the “Effect on EKG” value ([5]; 2 weeks of administration) was “no significant effect”. The “Effect on routine laboratory procedures” value ([5]; 2 weeks of administration) was “no significant effect” and the “Effect on spirometric indices” value ([5]; 2 weeks of administration) was “no significant effect”.
